Source: PubChem BioAssay (NCI)
Where “and” joins values, the source holds several entries; their conditions need not be identical. Equal values may be shown once.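 Where inhibition never reached the appropriate level, the endpoint shown equals the highest concentration tested. Otherwise, values were interpolated linearly from a five-concentration, 48-hour dose response in 96-well plates. GI50 marks 50% less growth. At the TGI there is no net growth.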

The molecules below were run on SK-MEL-28 melanoma (assay: NCI-60 cell line screen, 48 h).
Work on `Cc1nc2sccn2c1-c1nc2sccn2c1/C=C1/C(=O)Nc2ccccc21` yielded a GI50 of 5.42 µM and a TGI of 46.2 µM. Molecule `Cc1cccc(NC2=C(Cl)C(=O)c3nc(C)ccc3C2=O)c1` has a GI50 of 1.71 µM and a TGI of 3.14 µM. With `O=Cc1cc2c(cc1-c1cc3c(cc1C=O)OCO3)OCO2` the TGI was greater than 100 µM. `C/C(=N\NC(N)=O)c1sc(-c2nc(C)c(/C(C)=N/NC(N)=O)s2)nc1C` gave a TGI greater than 100 µM. `CN(C)CCNC(=O)Cc1ccccc1Nc1c(Cl)cccc1Cl` showed a TGI of 33.7 µM. `C[N+](C)(C)CC(=O)N/N=C(/Cc1cc(=O)oc2cc(O)ccc12)C(=O)Nc1ccc(Cl)cc1` showed a TGI greater than 100 µM. Work on `COC(=O)c1c2c(c(C)[n+]([O-])c1C)C(=O)C(NCc1ccc(Br)cc1)=CC2=O` yielded a GI50 of 4.13 µM and a TGI greater than 100 µM. Molecule `FC(F)(F)c1ccc2nc(NCc3ccccc3)c(-c3ccccc3)nc2c1` has a TGI greater than 100 µM. In the case of `COc1cc(C[P+](c2ccccc2)(c2ccccc2)c2ccccc2)cc(OC)c1OC`, the TGI is reported as greater than 100 µM. `CC(C)=CCC1=C(O)c2ccccc2C(=O)C1=O` was tested, and the GI50 was > 100 µM and 23 µM and the TGI was greater than 100 µM. `C=C(C)[C@@H]1CC[C@]2(CN)CC[C@]3(C)[C@H](CC[C@@H]4[C@@]5(C)CCCNC(C)(C)[C@@H]5CC[C@]43C)[C@@H]12` showed a GI50 of 1.74 µM and a TGI of 3.38 µM. `CCCN(CCC)c1c([N+](=O)[O-])cc(C(=O)N(CC)CC)cc1[N+](=O)[O-]` was tested, and the TGI was 64.6 µM. With `C=C(CN(C)Cc1ccccc1)c1ccc(NC(=O)c2ccc(C(=C)CN(C)Cc3ccccc3)cc2)cc1` the GI50 was greater than 100 µM and the TGI was greater than 100 µM. `CN1Nc2ccccc2CC1=O` gave a TGI greater than 100 µM. `CCOc1ccc(OCC(=O)O)c2c1CCCC2=O` was tested, and the TGI was greater than 100 µM. Molecule `CCCCCCCC(=O)OCC1OC(n2cc(F)c(=O)[nH]c2=O)C(N)C(OC(=O)CCCCCCC)C1O` (stereo unspecified) has a TGI of 34.1 µM. With `CCOc1ccc(NC(=O)CC2SC(=Nc3ccc(C)cc3C)NC2=O)cc1` (stereo unspecified) the TGI was greater than 100 µM. `CCSc1nc(N=Cc2ccccc2O)c2cn[nH]c2n1` was tested, and the GI50 was 33 µM and the TGI was greater than 100 µM. Molecule `O=C(CNc1ccc(Cl)cc1Cl)Nn1c(-c2ccccc2)nc2ccccc2c1=O` has a TGI of 43.7 µM. With `CSC[C@H](NC(=O)COc1cccc2cnccc12)C(=O)NC(Cc1ccccc1)C(O)C(=O)N1CSC[C@H]1C(=O)NC(C)(C)C` (stereo partly specified) the TGI was greater than 100 µM. With `C[C@H](CCOc1cccc(CC(=O)O)c1)N(Cc1cccc(C(F)(F)F)c1Cl)CC(c1ccccc1)c1ccccc1` the GI50 was 7.3 µM and the TGI was 20.1 µM. `O=[N+]([O-])c1cccnc1N=Nc1c(O)[nH]c2ccccc12` gave a TGI of 74.4 µM. `CNc1cc2oc(=O)cc(C)c2cc1C` showed a TGI greater than 100 µM. `O=C1C=C(Nc2ccc(Cl)cc2C(=O)c2ccccc2)c2ccccc2C1=O` gave a TGI greater than 100 µM. Work on `CCN(CCNS(C)(=O)=O)c1ccc(N)c(C)c1` yielded a GI50 of 13.4 µM and a TGI of 27.4 µM. Molecule `CC1=C(C(=O)Nc2ccccc2)C(c2ccc(Cl)c(Cl)c2)C(C(=O)Nc2ccccc2)=C(C)N1` has a TGI of 25.7 µM. `COc1ccc(NC(=O)CSc2nnc(-c3ccc(NC(C)=O)cc3)o2)cc1` showed a TGI of 34.7 µM.

Each molecule was assayed on SK-OV-3 ovarian (assay: NCI-60 cell line screen, 48 h).
For `Nc1c(C(=O)Nc2ccccn2)sc2nc3c(cc12)C(=O)CCC3`, the GI50 was 1.41 µM and the TGI was greater than 100 µM. Work on `Cc1nc2c(Br)cc(Br)cc2c(=O)n1-c1nnc(-c2cccc(Cl)c2Cl)c(N)n1` yielded a GI50 of 24.9 µM and a TGI greater than 100 µM. With `N#CC(I)CS(=O)(=O)c1ccccc1` (stereo unspecified) the GI50 was greater than 100 µM and the TGI was greater than 100 µM. `COc1ccc2c(=O)oc3c(OC)cc(CCN(C)C)c4c(=O)oc1c2c34` was tested, and the GI50 was 19.5 µM and 8.47 µM and the TGI was 33.7 µM and 15.9 µM. `Cc1nc2sccn2c1-c1nc2sccn2c1/C=C1/C(=O)Nc2ccccc21` showed a GI50 of 2.4 µM and a TGI of 15.4 µM. For `Cc1cccc(NC2=C(Cl)C(=O)c3nc(C)ccc3C2=O)c1`, the GI50 was 11.7 µM and the TGI was 24.2 µM. `O=Cc1cc2c(cc1-c1cc3c(cc1C=O)OCO3)OCO2` showed a TGI greater than 100 µM. For `C/C(=N\NC(N)=O)c1sc(-c2nc(C)c(/C(C)=N/NC(N)=O)s2)nc1C`, the TGI was greater than 100 µM. In the case of `CN(C)CCNC(=O)Cc1ccccc1Nc1c(Cl)cccc1Cl`, the TGI is reported as 33.4 µM. Work on `CCCCCCCCSC1=C(Cl)C(=O)C(OC)=C(OC)C1=O` yielded a TGI greater than 100 µM. Work on `C[N+](C)(C)CC(=O)N/N=C(/Cc1cc(=O)oc2cc(O)ccc12)C(=O)Nc1ccc(Cl)cc1` yielded a TGI greater than 100 µM. `COc1cccc2c1O/C(=C\c1ccc([N+](=O)[O-])s1)C2=O` showed a GI50 greater than 83.9 µM and a TGI greater than 100 µM. `FC(F)(F)c1ccc2nc(NCc3ccccc3)c(-c3ccccc3)nc2c1` showed a TGI greater than 100 µM. `COc1cc(C[P+](c2ccccc2)(c2ccccc2)c2ccccc2)cc(OC)c1OC` gave a TGI greater than 100 µM. For `CC(C)=CCC1=C(O)c2ccccc2C(=O)C1=O`, the GI50 was > 100 µM and 47.7 µM and the TGI was greater than 100 µM. With `C=C(C)[C@@H]1CC[C@]2(CN)CC[C@]3(C)[C@H](CC[C@@H]4[C@@]5(C)CCCNC(C)(C)[C@@H]5CC[C@]43C)[C@@H]12` the GI50 was 1.82 µM and the TGI was 3.4 µM. In the case of `CCCN(CCC)c1c([N+](=O)[O-])cc(C(=O)N(CC)CC)cc1[N+](=O)[O-]`, the TGI is reported as 96 µM. With `C=C(CN(C)Cc1ccccc1)c1ccc(NC(=O)c2ccc(C(=C)CN(C)Cc3ccccc3)cc2)cc1` the GI50 was 33.7 µM and the TGI was greater than 100 µM. In the case of `CN1Nc2ccccc2CC1=O`, the TGI is reported as greater than 100 µM. For `CCOc1ccc(OCC(=O)O)c2c1CCCC2=O`, the TGI was greater than 100 µM. For `CCCCCCCC(=O)OCC1OC(n2cc(F)c(=O)[nH]c2=O)C(N)C(OC(=O)CCCCCCC)C1O` (stereo unspecified), the TGI was 93.8 µM. `CCSc1nc(N=Cc2ccccc2O)c2cn[nH]c2n1` was tested, and the GI50 was greater than 100 µM and the TGI was greater than 100 µM. Work on `O=C(CNc1ccc(Cl)cc1Cl)Nn1c(-c2ccccc2)nc2ccccc2c1=O` yielded a TGI greater than 100 µM. `CSC[C@H](NC(=O)COc1cccc2cnccc12)C(=O)NC(Cc1ccccc1)C(O)C(=O)N1CSC[C@H]1C(=O)NC(C)(C)C` (stereo partly specified) showed a TGI greater than 100 µM. `O=[N+]([O-])c1cccnc1N=Nc1c(O)[nH]c2ccccc12` was tested, and the TGI was 69.5 µM. `O=C1C=C(Nc2ccc(Cl)cc2C(=O)c2ccccc2)c2ccccc2C1=O` was tested, and the TGI was greater than 100 µM. In the case of `CCN(CCNS(C)(=O)=O)c1ccc(N)c(C)c1`, the GI50 is reported as 17.9 µM and the TGI is reported as 32 µM. With `CC1=C(C(=O)Nc2ccccc2)C(c2ccc(Cl)c(Cl)c2)C(C(=O)Nc2ccccc2)=C(C)N1` the TGI was 31.6 µM. `COc1ccc(NC(=O)CSc2nnc(-c3ccc(NC(C)=O)cc3)o2)cc1` gave a TGI greater than 100 µM. `NCCCn1c2c(c3ccc([N+](=O)[O-])cc3c1=O)C(=O)c1cc(I)ccc1-2` showed a GI50 of 0.0825 µM and a TGI of 6.5 µM.

What follows are molecules tested on SN12C renal (assay: NCI-60 cell line screen, 48 h).
`Nc1c(C(=O)Nc2ccccn2)sc2nc3c(cc12)C(=O)CCC3` showed a GI50 of 3.36 µM and a TGI greater than 100 µM. `Cc1nc2c(Br)cc(Br)cc2c(=O)n1-c1nnc(-c2cccc(Cl)c2Cl)c(N)n1` was tested, and the GI50 was 19 µM and the TGI was 62 µM. `N#CC(I)CS(=O)(=O)c1ccccc1` (stereo unspecified) was tested, and the GI50 was 16.1 µM and the TGI was 29.9 µM. For `COc1ccc2c(=O)oc3c(OC)cc(CCN(C)C)c4c(=O)oc1c2c34`, the TGI was 27.7 µM and 15.6 µM. Work on `COc1ccc(Cl)cc1NC(=O)c1ccc(NC2=C(Cl)C(=O)N(Cc3ccccc3)C2=O)cc1` yielded a GI50 of 23 µM and a TGI greater than 100 µM. Molecule `Cc1nc2sccn2c1-c1nc2sccn2c1/C=C1/C(=O)Nc2ccccc21` has a GI50 of 16.8 µM and a TGI greater than 100 µM. Molecule `Cc1cccc(NC2=C(Cl)C(=O)c3nc(C)ccc3C2=O)c1` has a GI50 of 1.17 µM and a TGI of 2.5 µM. Molecule `O=Cc1cc2c(cc1-c1cc3c(cc1C=O)OCO3)OCO2` has a TGI greater than 100 µM. Work on `C/C(=N\NC(N)=O)c1sc(-c2nc(C)c(/C(C)=N/NC(N)=O)s2)nc1C` yielded a TGI greater than 100 µM. `CN(C)CCNC(=O)Cc1ccccc1Nc1c(Cl)cccc1Cl` was tested, and the TGI was 31.4 µM. In the case of `CCCCCCCCSC1=C(Cl)C(=O)C(OC)=C(OC)C1=O`, the TGI is reported as 18.4 µM. `C[N+](C)(C)CC(=O)N/N=C(/Cc1cc(=O)oc2cc(O)ccc12)C(=O)Nc1ccc(Cl)cc1` gave a TGI greater than 100 µM. For `COC(=O)c1c2c(c(C)[n+]([O-])c1C)C(=O)C(NCc1ccc(Br)cc1)=CC2=O`, the GI50 was 1.66 µM and the TGI was 4.09 µM. In the case of `O=S(=O)(OI(OI(OS(=O)(=O)C(F)(F)F)c1ccccc1)c1ccccc1)C(F)(F)F`, the TGI is reported as greater than 100 µM. `FC(F)(F)c1ccc2nc(NCc3ccccc3)c(-c3ccccc3)nc2c1` was tested, and the TGI was greater than 100 µM. For `COc1cc(C[P+](c2ccccc2)(c2ccccc2)c2ccccc2)cc(OC)c1OC`, the TGI was greater than 100 µM. In the case of `CC(C)=CCC1=C(O)c2ccccc2C(=O)C1=O`, the GI50 is reported as > 100 µM and 31.3 µM and the TGI is reported as greater than 100 µM. With `C=C(C)[C@@H]1CC[C@]2(CN)CC[C@]3(C)[C@H](CC[C@@H]4[C@@]5(C)CCCNC(C)(C)[C@@H]5CC[C@]43C)[C@@H]12` the GI50 was 1.75 µM and the TGI was 3.31 µM. Work on `CCCN(CCC)c1c([N+](=O)[O-])cc(C(=O)N(CC)CC)cc1[N+](=O)[O-]` yielded a TGI greater than 100 µM. `C=C(CN(C)Cc1ccccc1)c1ccc(NC(=O)c2ccc(C(=C)CN(C)Cc3ccccc3)cc2)cc1` gave a GI50 greater than 100 µM and a TGI greater than 100 µM. With `CN1Nc2ccccc2CC1=O` the TGI was greater than 100 µM. With `CCOc1ccc(OCC(=O)O)c2c1CCCC2=O` the TGI was greater than 100 µM.
